Experimental data reported in US9533968B2, “N-thio-anthranilamide compounds and their use as pesticides” (BASF SE, priority 2012, dated 2017).

Legend:
Format in all cases: in vivo
[1] = test system: Southern Armyworm (Spodoptera eridania); test: Southern armyworm test, sprayed lima bean plants; conditions: 96 h, read-out: mortality in comparison with untreated controls
Description: (§1) The active compounds are formulated in cyclohexanone as a 10,000 ppm solution supplied in tubes. The tubes are inserted into an automated electrostatic sprayer equipped with an atomizing nozzle and they serve as stock solutions for which lower dilutions are made in 50% acetone:50% water (v/v). A nonionic surfactant (Kinetic®) is included in the solution at a volume of 0.01% (v/v).
Lima bean plants (variety Sieva) are grown 2 plants to a pot and selected for treatment at the 1st true leaf stage. Test solutions are sprayed onto the foliage by an automated electrostatic plant sprayer equipped with an atomizing spray nozzle. The plants are dried in the sprayer fume hood and then removed from the sprayer. Each pot is placed into perforated plastic bags with a zip closure. About 10 to 11 armyworm larvae are placed into the bag and the bags zipped closed. Test plants are maintained in a growth room at about 25° C. and about 20-40% relative humidity for 4 days, avoiding direct exposure to fluorescent light (24 hour photoperiod) to prevent trapping of heat inside the bags. Mortality and reduced feeding are assessed 4 days after treatment, compared to untreated control plants.

[2] = test system: Orchid Thrips (Dichromothrips Corbetti); test: Orchid thrips test, floral-immersion technique; conditions: 96 h, read-out: mortality in comparison with untreated controls
Description: Dichromothrips corbetti adults used for bioassay are obtained from a colony maintained continuously under laboratory conditions. For testing purposes, the test compound is diluted to a concentration of 300 ppm (wt compound: vol diluent) in a 1:1 mixture of acetone:water (vol:vol), plus 0.01% vol/vol Kinetic® surfactant.
Thrips potency of each compound is evaluated by using a floral-immersion technique. Plastic petri dishes are used as test arenas. All petals of individual, intact orchid flowers are dipped into treatment solution and allowed to dry. Treated flowers are placed into individual petri dishes along with 10-15 adult thrips. The petri dishes are then covered with lids. All test arenas are held under continuous light and a temperature of about 28° C. for duration of the assay. After 4 days, the numbers of live thrips are counted on each flower, and along inner walls of each petri dish. The level of thrips mortality is extrapolated from pre-treatment thrips numbers.

[3] = test system: Mediterranean fruitfly (Ceratitis capitata); test: Mediterranean fruitfly test, microtiter plates with insect diet and eggs; conditions: 120 h, read-out: mortality in comparison with untreated controls
Description: For evaluating control of Mediterranean fruitfly (Ceratitis capitata) the test unit consists of microtiter plates containing an insect diet and 50-80 C. capitata eggs.
(§2) The compounds are formulated using a solution containing 75% v/v water and 25% v/v DMSO. Different concentrations of formulated compounds are sprayed onto the insect diet at 5 μl, using a custom built micro atomizer, at two replications.
After application, microtiter plates are incubated at about 28±1° C. and about 80±5% relative humidity for 5 days. Egg and larval mortality is then visually assessed.

[4] = test system: vetch aphid (Megoura viciae); test: Vetch aphid test, broad bean leaf disks in microtiter plates; conditions: foliar, 120 h, read-out: mortality in comparison with untreated controls
Description: For evaluating control of vetch aphid (Megoura viciae) through contact or systemic means the test unit consists of 24-well-microtiter plates containing broad bean leaf disks.
The compounds are formulated using a solution containing 75% v/v water and 25% v/v DMSO. Different concentrations of formulated compounds are sprayed onto the leaf disks at 2.5 μl, using a custom built micro atomizer, at two replications.
After application, the leaf disks are air-dried and 5-8 adult aphids placed on the leaf disks inside the microtiter plate wells. The aphids are then allowed to suck on the treated leaf disks and incubated at about 23±1° C. and about 50±5% relative humidity for 5 days. Aphid mortality and fecundity is then visually assessed.

[5] = test system: Rice Green Leafhopper (Nephotettix virescens); test: Rice green leafhopper test, sprayed rice seedlings; conditions: 72 h, read-out: mortality in comparison with untreated controls
Description: Rice seedlings are cleaned and washed 24 hours before spraying. The active compounds are formulated in 50:50 acetone:water (vol:vol), and 0.1% vol/vol surfactant (EL 620) is added. Potted rice seedlings are sprayed with 5 ml test solution, air dried, placed in cages and inoculated with 10 adults. Treated rice plants are kept at about 28-29° C. and relative humidity of about 50-60%. Percent mortality is recorded after 72 hours.

[6] = test system: Diamond Back Moth (Plutella Xylostella); test: Diamond back moth test, cabbage leaf dip; conditions: foliar, 72 h, read-out: mortality in comparison with untreated controls
Description: The active compound is dissolved at the desired concentration in a mixture of 1:1 (vol/vol) distilled water:aceteone. Surfactant (Alkamuls® EL 620) is added at a rate of 0.1% (vol/vol). The test solution is prepared at the day of use.
Leaves of cabbage are dipped in test solution and air-dried. Treated leaves are placed in petri dishes lined with moist filter paper and inoculated with ten 3rd instar larvae. Mortality is recorded 72 hours after treatment. Feeding damages are also recorded using a scale of 0-100%.

[7] = test system: Tobacco Budworm (Heliothis virescens); test: Tobacco budworm test, microtiter plates with insect diet and eggs; conditions: 120 h, read-out: mortality in comparison with untreated controls
Description: as §2, with “The test unit consisted of 96-well-microtiter plates containing an insect diet and 15-25 H. virescens eggs. The” for “The”, “compounds were” for “compounds are”, “at 10” for “at 5”
After application, microtiter plates were incubated at about 28±1° C. and about 80±5% relative humidity for 5 days. Egg and larval mortality was then visually assessed.

[8] = test system: boll weevil (Anthonomus grandis); test: Boll weevil test, microtiter plates with insect diet and eggs; conditions: 120 h, read-out: mortality in comparison with untreated controls
Description: For evaluating control of boll weevil (Anthonomus grandis) the test unit consists of 24-well-microtiter plates containing an insect diet and 20-30 A. grandis eggs.
The compounds are formulated using a solution containing 75% v/v water and 25% v/v DMSO. Different concentrations of formulated compounds are sprayed onto the insect diet at 20 μl, using a custom built micro atomizer, at two replications.
After application, microtiter plates are incubated at about 23±1° C. and about 50±5% relative humidity for 5 days. Egg and larval mortality is then visually assessed.

[9] = test system: Colorado Potato Beetle (Leptinotarsa decemlineata); test: Colorado potato beetle test, sprayed eggplant foliage; conditions: foliar, 96 h, read-out: mortality in comparison with untreated controls
Description: as §1
Eggplants are grown 2 plants to a pot and are selected for treatment at the 1st true leaf stage. Test solutions are sprayed onto the foliage by an automated electrostatic plant sprayer equipped with an atomizing spray nozzle. The plants are dried in the sprayer fume hood and then removed from the sprayer. The treated foliage is then cut and removed from the pot and placed in a Petri dish lined with moistened filter pa-per. Five beetle larvae are introduced into each Petri dish and the dish is covered by a Petri dish lid. Petri dishes are maintained in a growth room at about 25° C. and about 20-40% relative humidity for 4 days, avoiding direct exposure to fluorescent light (24 hour photoperiod) to prevent trapping of heat inside the dishes. Mortality and reduced feeding are assessed 4 days after treatment, compared to untreated control plants.

[10] = test system: Cowpea Aphid (Aphis Craccivora); test: Cowpea aphid test, sprayed potted cowpea plants; conditions: read-out: mortality in comparison with untreated controls
Description: If not otherwise specified the test solutions are prepared as follow:
The active compound is dissolved at the desired concentration in a mixture of 1:1 (vol:vol) distilled water:aceton. The test solution is prepared at the day of use and in general at concentrations of […].
Potted cowpea plants colonized with approximately 100-150 aphids of various stages are sprayed after the pest population has been recorded. Population reduction is assessed after 24, 72, and 120 hours.

[11] = test system: Silverleaf Whitefly (Bemisia argentifolii); test: Silverleaf whitefly test, sprayed cotton plants; conditions: at 100 ppm; silverleaf whitefly adults; 3 days after treatment
From the text: as §1
Cotton plants at the cotyledon stage (one plant per pot) are sprayed by an automated electrostatic plant sprayer equipped with an atomizing spray nozzle. The plants are dried in the sprayer fume hood and then removed from the sprayer. Each pot is placed into a plastic cup and about 10 to 12 whitefly adults (approximately 3-5 days old) are introduced. The insects are collected using an aspirator and a nontoxic Tygon® tubing connected to a barrier pipette tip. The tip, containing the collected insects, is then gently inserted into the soil containing the treated plant, allowing insects to crawl out of the tip to reach the foliage for feeding. Cups are covered with a reusable screened lid. Test plants are maintained in a growth room at about 25° C. and about 20-40% relative humidity for 3 days, avoiding direct exposure to fluorescent light (24 hour photoperiod) to prevent trapping of heat inside the cup. Mortality is assessed 3 days after treatment, compared to untreated control plants.

SMILES	mortality at 1 ppm [1] [%]	mortality at 500 ppm [2] [%]	mortality at 2500 ppm [3] [%]	mortality at 2500 ppm [4] [%]	mortality at 500 ppm [5] [%]	mortality at 500 ppm [6] [%]	mortality at 2500 ppm [7] [%]	mortality at 2500 ppm [8] [%]	mortality at 1 ppm [9] [%]	mortality at 500 ppm [10] [%]	mortality in comparison with untreated controls [11]
CSNC(=O)c1cc(Cl)cc(C)c1NC(=O)c1cc(C(F)(F)F)nn1-c1ncccc1Cl [Compound 1-22, N-[4-chloro-2-methyl-6-(methylsulfanylcarbamoyl)phenyl]-2-(3-chloro-2-pyridyl)-5-(trifluoromethyl)pyrazole-3-carboxamide]	> 75	> 75	> 75	> 75	> 75	> 75	> 75	> 75	> 75	–	–
Cc1cc(Cl)cc(C(=O)N[S+](C)[O-])c1NC(=O)c1cc(C(F)(F)F)nn1-c1ncccc1Cl (stereo not drawn) [Compound 1-28, N-[4-chloro-2-methyl-6-(methylsulfinylcarbamoyl)phenyl]-2-(3-chloro-2-pyridyl)-5-(trifluoromethyl)pyrazole-3-carboxamide]	–	> 75	> 75	> 75	> 75	> 75	> 75	> 75	–	> 75	–
CC(C)[S+]([O-])NC(=O)c1cc(Br)cc(Br)c1NC(=O)c1cc(C(F)(F)F)nn1-c1ncccc1Cl (stereo not drawn) [Compound 1-7]	–	–	–	–	–	–	–	–	–	–	over 75%
